From US7838508B2, “4′-thio-L-xyloy furanosyl nucleosides, precursors thereof, preparation and use thereof” (priority 2000, dated 2010)
Like-named read-outs stand apart in the source and are kept apart here.

Experiments:
CCRF-CEM (leukemia) = test: Cell culture cytotoxicity, CCRF-CEM (leukemia); assay type: cell-based, human; details: read-out: Cytotoxicity IC50, CCRF-CEM (leukemia)
Protocol: (§1) The cell culture cytotoxicity of compounds of the present invention was determined against several different human cancel cell lines (see Table 1 below) and for antiviral activity (see Table 2 below).

CAKI-1 (renal) = test: Cell culture cytotoxicity, CAKI-1 (renal); assay type: cell-based, human
Protocol: as §1

NCI-H23 (lung) = test: Cell culture cytotoxicity, NCI-H23 (lung); assay type: cell-based, human
Protocol: as §1

SNB-7 (CNS) = test: Cell culture cytotoxicity, SNB-7 (CNS); assay type: cell-based, human
Protocol: as §1

SK-MEL-28 (melanoma) = test: Cell culture cytotoxicity, SK-MEL-28 (melanoma); assay type: cell-based, human
Protocol: as §1

DLD-1 (colon) = test: Cell culture cytotoxicity, DLD-1 (colon); assay type: cell-based, human
Protocol: as §1

[1] = Toxicity (cell viability) in antiviral (CMV) test; assay type: cell-based; details: Antiviral (CMV) data; read-out: TC50: Toxic Concentration at 50% cell viability
Protocol: as §1

CMV = test: Antiviral (CMV) activity; assay type: cell-based; details: for IC50: Human betaherpesvirus 5, Antiviral (CMV) data, read-out: IC50: 50% Inhibitory Concentration of CMV; for TI: Therapeutic Index (TC50/IC50): TC50/IC50, CMV
Protocol: as §1

[2] = CCRF-CEM human leukemia cell line
[3] = CAKI-1 human renal cancer cell line, read-out: Cytotoxicity IC50, CAKI-1 (renal)
[4] = NCI-H23 human lung cancer cell line, read-out: Cytotoxicity IC50, NCI-H23 (lung)
[5] = SNB-7 human CNS cancer cell line, read-out: Cytotoxicity IC50, SNB-7 (CNS)
[6] = SK-MEL-28 human melanoma cell line, read-out: Cytotoxicity IC50, SK-MEL-28 (melanoma)
[7] = DLD-1 human colon cancer cell line, read-out: Cytotoxicity IC50, DLD-1 (colon)

Molecule | IC50 (CCRF-CEM (leukemia); [2]) [µM] | IC50 (CAKI-1 (renal); [3]) [µM] | IC50 (NCI-H23 (lung); [4]) [µM] | IC50 (SNB-7 (CNS); [5]) [µM] | IC50 (SK-MEL-28 (melanoma); [6]) [µM] | IC50 (DLD-1 (colon); [7]) [µM] | CC50 [1] [µM] | IC50 (CMV) [µM] | TI: Therapeutic Index (TC50/IC50) (CMV) | IC50 (CCRF-CEM (leukemia); Homo sapiens, CCRF-CEM) [µM] | IC50 (CAKI-1 (renal); Homo sapiens, CAKI-1, read-out: Cytotoxicity IC50, CAKI-1 (renal)) [µM] | IC50 (NCI-H23 (lung); Homo sapiens, NCI-H23, read-out: Cytotoxicity IC50, NCI-H23 (lung)) [µM] | IC50 (SNB-7 (CNS); Homo sapiens, SNB-7, read-out: Cytotoxicity IC50, SNB-7 (CNS)) [µM] | IC50 (SK-MEL-28 (melanoma); Homo sapiens, SK-MEL-28, read-out: Cytotoxicity IC50, SK-MEL-28 (melanoma)) [µM] | IC50 (DLD-1 (colon); Homo sapiens, DLD-1, read-out: Cytotoxicity IC50, DLD-1 (colon)) [µM]
1-(4′-thio-α,β-L-Xylofuranosyl)thymine [Compound 17αβ] | > 100 | > 100 | > 100 | > 100 | > 100 | > 100 | – | – | – | – | – | – | – | – | –
Nc1nc(Cl)nc2c1ncn2[C@@H]1S[C@@H](CO)[C@@H](O)[C@@H]1O [Compound 9α, 2-Chloro-9-(4-thio-α-L-xylofuranosyl)adenine] | > 100 | > 100 | > 100 | > 100 | > 100 | > 100 | – | – | – | – | – | – | – | – | –
Nc1nc(Cl)nc2c1ncn2[C@H]1S[C@@H](CO)[C@@H](O)[C@@H]1O [Compound 9β, 2-Chloro-9-(4-thio-β-L-xylofuranosyl)adenine] | > 100 | > 100 | > 100 | > 100 | > 100 | > 100 | – | – | – | – | – | – | – | – | –
Nc1nc(N)c2ncn([C@@H]3S[C@@H](CO)[C@@H](O)[C@@H]3O)c2n1 [Compound 12α, 9-(4-Thio-α-L-Xylofuranosyl)-9H-purine-2,6-diamine] | > 100 | > 100 | > 100 | > 100 | > 100 | > 100 | > 10 | 0.051 | >196.1 | – | – | – | – | – | –
Nc1nc(N)c2ncn([C@H]3S[C@@H](CO)[C@@H](O)[C@@H]3O)c2n1 [Compound 12β, 9-(4-Thio-β-L-Xylofuranosyl)-9H-purine-2,6-diamine] | > 100 | > 100 | > 100 | > 100 | > 100 | > 100 | – | – | – | – | – | – | – | – | –
Nc1nc2c(ncn2[C@H]2S[C@@H](CO)[C@@H](O)[C@@H]2O)c(=O)[nH]1 [Compound 13, 9-(4-Thio-β-L-xylofuranosyl)guanine] | > 100 | > 100 | > 100 | > 100 | > 100 | > 100 | – | – | – | – | – | – | – | – | –
Nc1ccn([C@@H]2S[C@@H](CO)[C@@H](O)[C@@H]2O)c(=O)n1 [Compound 15α, 1-(4-thio-α-L-Xylofuranosyl)cytosine] | 8 | > 100 | > 100 | > 100 | > 100 | > 100 | > 10 | 0.026 | >384.6 | – | – | – | – | – | –
Nc1ccn([C@H]2S[C@@H](CO)[C@@H](O)[C@@H]2O)c(=O)n1 [Compound 15β, 1-(4-thio-β-L-Xylofuranosyl)cytosine] | 11 | > 100 | > 100 | 90 | > 100 | > 100 | > 10 | 0.022 | >454.5 | – | – | – | – | – | –
O=c1ccn(C2S[C@@H](CO)[C@@H](O)[C@@H]2O)c(=O)[nH]1 (stereo partly drawn) [Compound 19αβ, 1-(4-thioα,β-L-Xylofuranosyl)uracil] | – | – | – | – | – | – | – | – | – | > 100 | > 100 | > 100 | > 100 | > 100 | > 100
Nc1nc(O)c2ncn(COC(CO)CO)c2n1 [Ganciclovir, reference compound] | – | – | – | – | – | – | > 10 | 8.6 | >11.6 | – | – | – | – | – | –
